Several values for one entry are separate records, joined by “and”; a condition that tells them apart may be missing. Equal entries are not always repeated.

Results on five compounds are retold here after PubChem BioAssay AID1919017 (Molecular Pharmacology Branch, DTP, NCI, 2023).

This test deals with SW1271 complex spheroids with HUVEC/MSC, growth, % test/control. As to the kind of experiment: Anticancer human tumor SW1271 cell line growth inhibition [AhR].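 As to all read-outs here: spheroids exposed to agents for 7 days before readout.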 The following applies: for viability, T/C: stronger effect = lower value. From the text: Multicellular complex tumor spheroid response to aryl hydrocarbon receptor antagonists in combination with a variety of drugs and investigational agents in selected tumor cell lines
The current study was undertaken to assess response to aryl hydrocarbon receptor antagonists in combination with standard-of-care drugs and investigational agents in solid tumor complex spheroid models. Complex spheroids include a stromal component modeled by human endothelial cells (HUVEC) and fibroblasts modeled by human mesenchymal stem cells (MSCs). The concentration ranges selected for each drug and investigational agent were based upon clinically achievable concentrations if the clinical Cmax of the agent was known.
Compounds. The drugs and investigational agents: BAY 2416964 (NSC825713), GNF351 (NSC835774), CH-223191 (NSC835775), CPI-455 (NSC825282), aza-TdCyd (NSC777586), decitabine (NSC127716), belinostat (NSC758774), entinostat (NSC756642), pevonedistat (NSC761192), tazemetostat (NSC777109), talazoparib (NSC765396), olaparib (NSC753686), selinexor (NSC780203), nedisertib (M3814, NSC802822), bortezomib (NSC756655), venetoclax (NSC766270), doxorubicin (NSC123127), elimusertib (BAY189344, NSC800525), ceralasertib (AZD6738, NSC777638), TAK-243 (NSC785004), alisertib (NSC759677), etoposide (NSC141540), topotecan (NSC609699), eribulin (NSC707389), gemcitabine (NSC613327), carboplatin (NSC241240), cisplatin (NSC119875), and SN-38 (NSC673596) were obtained from the National Cancer Institute (NCI) Developmental Therapeutics Program Chemical Repository (32). The FDA-approved anticancer drug set is available from the Developmental Therapeutics Program at https://dtp.cancer.gov/organization/dscb/obtaining/available plates.htm. […] The stock solutions were prepared in dimethyl sulfoxide (DMSO, Sigma-Aldrich, St. Louis, MO, cat. D2650), except for the platinum compounds which were prepared in saline (Quality Biological, Gaithersburg, MD, cat. 114-055-101), at 800-fold the tested concentration and stored at -70 degrees C prior to their use. All drugs and investigational agents were tested over a range starting from a high concentration at or near the clinical Cmax and decreasing in half-log increments. If the clinical Cmax for an agent had not been determined, the highest concentration tested was 10 microM (Table 1).
Cell Culture. All cells were maintained in an incubator at 37 degrees C and 5% CO2 with 95% humidity. The PDC lines were cultured according to standard operating procedures established by the NCI PDMR (https://pdmr.cancer.gov). Briefly, all PDCs were thawed and cultured in Matrigel-coated flasks prepared with a working solution of 1X Ham's F-12 nutrient mix, without supplementation (Invitrogen, Waltham, MA, cat. 11765054), 100 U/mL penicillin-streptomycin (Invitrogen, cat. 15140122), and 2.5% Matrigel (Corning Inc., Corning, NY, cat. 354248) for the first three passages. All PDCs were cultured in complete DMEM/F-12 media containing advanced DMEM/F-12 (Invitrogen, cat. 12634028), 4.9% defined fetal bovine serum, heat inactivated (HyClone Laboratories Inc., Logan, UT, cat. SH30070.03HI), 389 ng/mL hydrocortisone (Sigma-Aldrich, cat. H4001), 9.7 ng/mL human EGF recombinant protein (Invitrogen, cat. PHG0313), 23.4 microg/mL adenine (Sigma-Aldrich, cat. A2786), 97.3 U/mL penicillin-streptomycin (Invitrogen, cat. 15140122), 1.9 mM L-glutamine (Invitrogen, cat. 25030081), and 9.7 microM Y-27632 dihydrochloride (Tocris Bioscience, Bristol, United Kingdom, cat. 1254). The PDCs were cultured in complete DMEM/F12 media without 10 microM Y-27632 dihydrochloride for at least two passages prior to the screen. The established cell lines NCI-H1341 and […] were cultured in DMEM/F-12, HEPES (Invitrogen, cat. 11330032), 5% defined fetal bovine serum (HyClone Laboratories Inc., cat. SH30070.03), ITS premix universal culture supplement [insulin (5 microg/mL), transferrin (5 microg/mL), and selenious acid (5 ng/mL)] […]

Where [1] appears, read: curve of first compound, second compound 0.1 µM.
Where [2] appears, read: curve of first compound, second compound 0.316 µM.
Setting [3] is: curve of first compound, second compound 1 µM.
[4] abbreviates: curve of first compound, second compound 3.16 µM.
Setting [5] is: curve of first compound, second compound 10 µM.

By IC50 is commonly meant the concentration that inhibits the measured activity by half. The viability, T/C is the ratio of treated to control. `CC1COCCN1c1cc(C2(S(C)(=N)=O)CC2)nc(-c2ccnc3[nH]ccc23)n1` (stereo not given) + CC(CO)NC(=O)c1cc(-c2ccc(Cl)cc2)nn(-c2cnn(C)c2)c1=O: the IC50 under setting [1] is more than 10000 nM; the IC50 under setting [2] is more than 10000 nM; the IC50 under setting [3] was more than 10000 nM; the IC50 under setting [4] was 8830 nM; the IC50 under setting [5] was more than 10000 nM. Moreover, the viability, T/C runs as follows: (second compound 0.1 µM, first compound 0.0316 µM) 114%; (second compound 0.1 µM, first compound 0.1 µM) 92.9%; (second compound 0.1 µM, first compound 0.316 µM) 77.6%; (second compound 0.1 µM, first compound 1 µM) 88.9%; (second compound 0.1 µM, first compound 3.16 µM) 72.7%; (second compound 0.1 µM, first compound 10 µM) 59.9%. The viability, T/C is, setting by setting: (second compound 0.316 µM, first compound 0.0316 µM) 91.3%; (second compound 0.316 µM, first compound 0.1 µM) 96.7%; (second compound 0.316 µM, first compound 0.316 µM) 90.3%; (second compound 0.316 µM, first compound 1 µM) 73.2%; (second compound 0.316 µM, first compound 3.16 µM) 56.1%; (second compound 0.316 µM, first compound 10 µM) 50.9%. In addition, the viability, T/C was 80.7% (second compound 1 µM, first compound 0.0316 µM); 100% (second compound 1 µM, first compound 0.1 µM); 98.5% (second compound 1 µM, first compound 0.316 µM); 77% (second compound 1 µM, first compound 1 µM); 68.3% (second compound 1 µM, first compound 3.16 µM); 57.1% (second compound 1 µM, first compound 10 µM). For the same compound, the viability, T/C (second compound 3.16 µM, first compound 0.0316 µM) is 98.3%; the viability, T/C (second compound 3.16 µM, first compound 0.1 µM) was 83.4%; the viability, T/C (second compound 3.16 µM, first compound 0.316 µM) was 86.4%; the viability, T/C (second compound 3.16 µM, first compound 1 µM) is 73.3%; the viability, T/C (second compound 3.16 µM, first compound 3.16 µM) was 61.1%; the viability, T/C (second compound 3.16 µM, first compound 10 µM) is 48.5%. Besides, the viability, T/C by setting is: (second compound 10 µM, first compound 0.0316 µM) 80%; (second compound 10 µM, first compound 0.1 µM) 67.6%; (second compound 10 µM, first compound 0.316 µM) 72%; (second compound 10 µM, first compound 1 µM) 70.6%; (second compound 10 µM, first compound 3.16 µM) 69.2%; (second compound 10 µM, first compound 10 µM) 62.9%.

For `Nc1ccn(C2OC(CO)C(O)C2(F)F)c(=O)n1` (stereo not given), the viability, T/C was 75.2% and 49% and 67.7% (compound 0.0316 µM); 65.6% and 48.5% and 66.2% (compound 0.1 µM); 69.9% and 41.9% and 48.2% (compound 0.316 µM); 57.6% and 44.3% and 50% (compound 1 µM); 57.8% and 50.9% and 56.9% (compound 3.16 µM); 64.4% and 44.9% and 47.5% (compound 10 µM).

Take `O=C(c1cc(Cc2n[nH]c(=O)c3ccccc23)ccc1F)N1CCN(C(=O)C2CC2)CC1`: the viability, T/C reads like this: (compound 0.0316 µM) 93% and 99.8% (2×); (compound 0.1 µM) 101% and 109% and 92.5%; (compound 0.316 µM) 90.8% and 96.5% and 82.1%; (compound 1 µM) 84.3% and 88.2% and 89.1%; (compound 3.16 µM) 80.5% and 98.7% and 74.1%; (compound 10 µM) 66% and 77.4% and 76.5%. Also, the IC50 (curve of compound) was more than 10000 nM.

For `CC(C)CC(NC(=O)C(Cc1ccccc1)NC(=O)c1cnccn1)B(O)O` (stereo not given) + CC(CO)NC(=O)c1cc(-c2ccc(Cl)cc2)nn(-c2cnn(C)c2)c1=O, the IC50 reads like this: under setting [1], 4.95 nM; under setting [2], 5.08 nM; under setting [3], 5.33 nM; under setting [4], 4.77 nM; under setting [5], 4.41 nM. The viability, T/C is 116% (second compound 0.1 µM, first compound 0.000949 µM); 86.6% (second compound 0.1 µM, first compound 0.003 µM); 2.31% (second compound 0.1 µM, first compound 0.00949 µM); 0.27% (second compound 0.1 µM, first compound 0.03 µM); 0.34% (second compound 0.1 µM, first compound 0.0949 µM); 0.41% (second compound 0.1 µM, first compound 0.3 µM). In addition, the viability, T/C is 92.5% (second compound 0.316 µM, first compound 0.000949 µM); 88.3% (second compound 0.316 µM, first compound 0.003 µM); 4.62% (second compound 0.316 µM, first compound 0.00949 µM); 0.41% (second compound 0.316 µM, first compound 0.03 µM); 0.43% (second compound 0.316 µM, first compound 0.0949 µM); 0.4% (second compound 0.316 µM, first compound 0.3 µM). Besides, the viability, T/C (second compound 1 µM, first compound 0.000949 µM) was 99.9%; the viability, T/C (second compound 1 µM, first compound 0.003 µM) is 97.5%; the viability, T/C (second compound 1 µM, first compound 0.00949 µM) was 2.34%; the viability, T/C (second compound 1 µM, first compound 0.03 µM) is 0.34%; the viability, T/C (second compound 1 µM, first compound 0.0949 µM) is 0.31%; the viability, T/C (second compound 1 µM, first compound 0.3 µM) is 0.55%. The viability, T/C was 66.9% (second compound 3.16 µM, first compound 0.000949 µM); 96.6% (second compound 3.16 µM, first compound 0.003 µM); 3.1% (second compound 3.16 µM, first compound 0.00949 µM); 0.44% (second compound 3.16 µM, first compound 0.03 µM); 0.3% (second compound 3.16 µM, first compound 0.0949 µM); 0.38% (second compound 3.16 µM, first compound 0.3 µM). Further, the viability, T/C is 73.6% (second compound 10 µM, first compound 0.000949 µM); 75.2% (second compound 10 µM, first compound 0.003 µM); 1.45% (second compound 10 µM, first compound 0.00949 µM); 0.5% (second compound 10 µM, first compound 0.03 µM); 0.51% (second compound 10 µM, first compound 0.0949 µM); 0.39% (second compound 10 µM, first compound 0.3 µM).

Consider `CC(C)c1c(-c2ccccc2)nc2c(C#N)c[nH]n2c1=O`, for which the viability, T/C by setting is: (compound 0.0316 µM) 110% and 109% and 85.9%; (compound 0.1 µM) 81.4% and 104% and 86.4%; (compound 0.316 µM) 121% and 91.8% and 104%; (compound 1 µM) 101% and 92.5% and 93.3%; (compound 3.16 µM) 110% and 91.8% and 94%; (compound 10 µM) 107% and 91.7% and 85.8%. The IC50 (curve of compound) is more than 10000 nM.
